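Following 48 hours of exposure in 96-well plates, responses at five concentrations were used to interpolate endpoints linearly. TGI is the concentration that stops growth completely.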
What was measured:
Assay in all cases: growth of human tumour cells (NCI), 48 h
OVCAR-8 ovarian = test system: OVCAR-8 ovarian
NCI-H23 lung = test system: NCI-H23 lung
SF-539 CNS = test system: SF-539 CNS
OVCAR-5 ovarian = test system: OVCAR-5 ovarian
SF-295 CNS = test system: SF-295 CNS
RXF 393 renal = test system: RXF 393 renal
CAKI-1 renal = test system: CAKI-1 renal
SF-268 CNS = test system: SF-268 CNS
SK-MEL-5 melanoma = test system: SK-MEL-5 melanoma
MCF7 breast = test system: MCF7 breast
SK-MEL-2 melanoma = test system: SK-MEL-2 melanoma
OVCAR-4 ovarian = test system: OVCAR-4 ovarian
UACC-62 melanoma = test system: UACC-62 melanoma
SK-OV-3 ovarian = test system: SK-OV-3 ovarian
SK-MEL-28 melanoma = test system: SK-MEL-28 melanoma
HCT-15 colon = test system: HCT-15 colon
RPMI-8226 leukemia = test system: RPMI-8226 leukemia
EKVX NSCLC = test system: EKVX NSCLC
T-47D breast = test system: T-47D breast

Compound	TGI (OVCAR-8 ovarian)	TGI (NCI-H23 lung)	TGI (SF-539 CNS)	TGI (OVCAR-5 ovarian)	TGI (SF-295 CNS)	TGI (RXF 393 renal)	TGI (CAKI-1 renal)	TGI (SF-268 CNS)	TGI (SK-MEL-5 melanoma)	TGI (MCF7 breast)	TGI (SK-MEL-2 melanoma)	TGI (OVCAR-4 ovarian)	TGI (UACC-62 melanoma)	TGI (SK-OV-3 ovarian)	TGI (SK-MEL-28 melanoma)	TGI (HCT-15 colon)	TGI (RPMI-8226 leukemia)	TGI (EKVX NSCLC)	TGI (T-47D breast)
O=C1C(Br)=CC2(C=C1Br)CCN=c1c(O)c3c(c(O)c12)=NC=N3	31.9 µM	26.9 µM	32.1 µM	29.4 µM	30 µM	29.9 µM	41 µM	28.2 µM	23.4 µM	28.5 µM	21.3 µM	27.8 µM	24.2 µM	48.2 µM	29.9 µM	29.1 µM	50.9 µM	32 µM	33.7 µM
CCOC(=O)/C(O)=C(/C=NC(=S)c1ccncc1)C(=O)OCC	> 100 µM	> 100 µM	> 100 µM	> 100 µM	> 100 µM	> 100 µM	> 100 µM	> 100 µM	> 100 µM	> 100 µM	> 100 µM	> 100 µM	> 100 µM	> 100 µM	> 100 µM	> 100 µM	> 100 µM	> 100 µM	> 100 µM
CCOC(=O)C(=C(SC)SC)c1nn2c(=O)cc(C)nc2s1	43.9 µM	65.9 µM	32.7 µM	67.2 µM	> 100 µM	47.5 µM	60.1 µM	54.5 µM	36.9 µM	35.5 µM	37.5 µM	> 100 µM	57.3 µM	> 100 µM	31.3 µM	31.8 µM	41.3 µM	53.8 µM	34.1 µM
Nc1nc(Cl)cc(NCC2(CO)CC(OCc3ccccc3)C2)n1 (configuration not stated)	> 100 µM	> 100 µM	> 100 µM	> 100 µM	> 100 µM	> 100 µM	> 100 µM	74.8 µM	> 100 µM	> 100 µM	> 100 µM	> 100 µM	> 100 µM	> 100 µM	> 100 µM	> 100 µM	> 100 µM	> 100 µM	41.9 µM
Cc1cccc2c(N)c3cccc(C(=O)NCCCNCCN)c3nc12	23.6 µM	10.9 µM	9.93 µM	38.4 µM	20.9 µM	18.6 µM	26.3 µM	3.19 µM	22.8 µM	11 µM	34 µM	10.5 µM	19 µM	> 62.8 µM	29.4 µM	> 100 µM	37.3 µM	33.2 µM	24.8 µM
c1ccc2c(c1)nc1n2CNCC1	> 100 µM	> 100 µM	> 100 µM	> 100 µM	> 100 µM	> 100 µM	> 100 µM	> 100 µM	> 100 µM	> 100 µM	> 100 µM	> 100 µM	> 100 µM	> 100 µM	> 100 µM	> 100 µM	> 100 µM	> 100 µM	> 100 µM
O=P(O)(O)CN1CCN(CP(=O)(O)O)CCN(CP(=O)(O)O)CCN(CP(=O)(O)O)CC1	> 100 µM	> 100 µM	> 100 µM	> 100 µM	> 100 µM	> 100 µM	> 100 µM	> 100 µM		> 100 µM	> 100 µM	> 100 µM	> 100 µM			77.7 µM	93.5 µM	> 100 µM	> 100 µM
CC(C(=O)N1c2ccccc2Sc2ccccc21)N1c2ccccc2Sc2ccccc21 (configuration not stated)	> 100 µM	> 100 µM	> 100 µM	> 100 µM	> 100 µM	> 100 µM		> 100 µM	> 100 µM	> 100 µM	> 100 µM	> 100 µM	> 100 µM	> 100 µM	> 100 µM	> 100 µM	> 100 µM	> 100 µM	> 100 µM
CC(=O)NCc1nc(C#N)c(N)o1	> 100 µM	> 100 µM	> 100 µM	> 100 µM	> 100 µM	> 100 µM	> 100 µM	> 100 µM		> 100 µM	> 100 µM	> 100 µM	> 100 µM	> 100 µM	> 100 µM	> 100 µM	> 100 µM	> 100 µM	> 100 µM
CCCN=C(NC(=O)c1ccc(Cl)cc1)SC	> 100 µM	> 100 µM	> 100 µM	> 100 µM	> 100 µM	> 100 µM	> 100 µM	> 100 µM	> 100 µM	> 100 µM	> 100 µM	> 100 µM	> 100 µM	> 100 µM	> 100 µM	> 100 µM	> 100 µM	> 100 µM	> 100 µM
COC1(OC)C2(Cl)CCC1(Cl)C(OC(C)=O)C2 (configuration not stated)	> 100 µM	> 100 µM	> 100 µM	> 100 µM	> 100 µM	> 100 µM	> 100 µM	> 100 µM	> 100 µM	> 100 µM	> 100 µM	> 100 µM	> 100 µM	> 100 µM	> 100 µM	> 100 µM	> 100 µM	> 100 µM	> 100 µM
COC(=O)c1ccc2c(c1)CC1(C2)Cc2cc3c(cc2C1=O)CCC3 (configuration not stated)	> 100 µM	> 100 µM	> 100 µM	> 100 µM	> 100 µM	> 100 µM	96.5 µM	> 100 µM	21.2 µM	50.9 µM	> 100 µM	> 100 µM		> 100 µM	> 100 µM	> 100 µM	38.7 µM	> 100 µM	> 100 µM
